# Results as given in patent US5565475A, “Method of treating urinary bladder dysfunctions with 3-tetrahydropyridine derivatives” (priority 1994, dated 1996).
# pIC50: −log10 of the molar value. Counter-ions that a name gives are not always drawn.
# Key:
# muscarinic receptors = experiment: Inhibition of 3H-oxotremorine-M binding to muscarinic receptors (rat cerebral cortical membranes); parameters: species or system rat (male Sprague-Dawley); settings: 3 nM 3H-oxotremorine-M, pH 7.4, 15 minutes at 25° C., read-out: Inhibition of 3H-Oxo
# Experimental: The affinity of the compounds for the muscarinic receptors was determined using the non-selective agonist ligand, ^3 H-oxotremorine-M. Birdsdall N. J. M., Hulme E. C., and Burgen A. S. V., "The Character of Muscarinic Receptors in Different Regions of the Rat Brain", 207 Proc. Roy. Soc. 1 (London, Series B, 1980). Each compound was tested to determine the affinity of the compound for the muscarinic receptors using the following procedure.
# For in vitro binding, male Sprague-Dawley (Harlan Sprague-Dawley, Indianapolis, IN) rats weighing from about 100 to about 150 grams each were sacrificed by decapitation. The brains were quickly removed and the cerebral cortex were dissected from the brain. The cerebral cortex tissue was homogenized in 10 volumes of 0.32M sucrose and homogenized for about 10 minutes at about 1000×g. The supernatant was centrifuged at about 12,000×g for about 10 minutes and the resulting pellet was resuspended in 20 mM tris-Cl, pH 7.4. The resuspended pellet was centrifuged again for about 10 minutes at about 50,000×g. The resulting homogenate was preincubated for about 10 minutes at about 25° C. and centrifuged again for about 10 minutes at about 50,000×g. The pellet was resuspended at 1 gram of pellet per 3 ml of buffer and frozen at about -80° C. until used.
# The aforementioned homogenates mixture was incubated for about 15 minutes at about 25° C. and then the homogenates were filtered through glass filters (Whatman, GF/C) with vacuum. The filters were washed 3 times with about 2 ml of cold tris-Cl buffer, and placed in scintillation vials containing about 10 ml of scintillation fluid (Ready Protein+, Beckman, Fullerton, Calif.). Radioactivity trapped on the filters was determined by liquid scintillation spectrometry. Nonspecific binding was determined using 1 μM atropine.
# vesico-anal reflex = experiment: Acetic acid-induced vesico-anal reflex (model of visceral nociception); assay type: in vivo, rat (female Sprague-Dawley); settings: for duration of the increase in vesico-anal reflex activity / increases in vesico-anal reflex activity when administered alone: atropine 30 μg/kg-1 mg/kg, oxybutynin 1-3 mg/kg, administered alone
# Description: The model of visceral nociception that was used in the testing of the compounds according to the method of this invention is the acetic acid-induced vesico-anal reflex. This model utilizes infusion of a dilute acetic acid solution into the urinary bladder as a nociceptive stimulus and records increases in electromyographic (EMG) activity from the anal sphincter as the primary measured response. Anal sphincter EMG activity is composed of 2 components, 1) a small, long duration action potential (ca. 50 msec) that is sensitive to muscarinic antagonists and 2) a larger, short duration action potential (ca. 2 msec) that is sensitive to neuromuscular blocking agents (i.e. mediated by nicotinic receptors). These components represent rectal longitudinal smooth muscle activity and external anal sphincter striated muscle activity, respectively, and have been described in detail in a separate publication (Muhlhauser reference). It is the striated anal sphincter muscle activity that 1) is associated with bladder activity, 2) is increased by acetic acid infusion into the bladder, and 3) represents the vesico-anal reflex. The acetic acid-inducedincrease in vesico-anal reflex activity is maintained for over 2 hours in 95% of the animals.
# In the acetic acid-induced vesico-anal reflex model, bladders of urethane-anesthetized rats were cannulated through the dome for continuous-infusion cystometrogram recordings. EMG electrodes were inserted into the anus and the peri-urethral musculature for recording anal and urethral sphincteric activity, respectively. Infusion of 0.5% acetic acid into the bladder or urethra produced modest increases in bladder contractile activity and urethral sphincter activity and pronounced increases in anal sphincter activity (i.e. an increase in the vesico-anal reflex). […] These studies indicate that a tonically-active, endogenous, cholinergic muscarinic system plays a role in the suppression of visceral nociception arising from the lower urinary tract.
# Female Sprague-Dawley rats (200-300 g) were anesthetized with 1.4 g/kg urethane (0.7 g administered i.p. and 0.7 g administered s.c.), which was supplemented with 1% isoflurane during surgery. The urinary bladder was exposed through an abdominal incision and cannulated with PE60 tubing attached to a 22 gauge needle that was inserted through the dome of the bladder. A purse-string suture (5-0 silk) through the bladder held the needle in place. The cannula was connected to an infusion pump (Harvard Apparatus, ratus, Natick Mass.) and a pressure transducer (Statham Gould, Cleveland, Ohio) through a 3 way stopcock to allow bladder filling and pressure measurement, respectively. The abdominal incision was covered with plastic wrap. A small incision was made in the perineum to allow placement of EMG electrodes into the periurethral musculature. EMG electrodes were also placed into the muscular tissue of the anus. EMG electrodes were connected to preamplifiers (Grass P511, Quincey, Mass.) with low and high pass filters set at 10 and 3000 HZ. […] A catheter inserted into the carotid artery was connected to a pressure transducer (Statham Gould, Cleveland, Ohio) to record arterial pressure, which was used to trigger a heart rate meter (Biotach, Gould, Cleveland, Ohio). A catheter was inserted into the trachea to allow for artificial respiration and monitoring of expired CO2 (Sensor Medics, Anaheim, Calif.). EMG potentials, rate meter output, bladder and arterial pressure, heart rate, and expired CO2 measurements were recorded on a physiograph (Gould, TA4000, Cleveland, Ohio) and stored on an 8-channel digital audio tape recorder (SONY PC-108M, Tokyo, Japan).
# After establishing control levels of anal and urethral activity, compounds were administered intravenously. […]
smiles,measurement,setting,value
"CCCOc1nsnc1C1=CCCN(C)C1 [Compound 3, 1,2,5,6-Tetrahydro-1-methyl-3-(3-propoxy-1,2,5-thiadiazol-4-yl)pyridine oxalate]",pIC50,muscarinic receptors,8.80
"COc1nsnc1C1=CCCN(C)C1 [Compound 1, 1,2,5,6-Tetrahydro-3-(3-methoxy-1,2,5-thiadiazol-4-yl)-1-methylpyridine oxalate]",pIC50,muscarinic receptors,7.66
"CCCCOc1nsnc1C1=CCCN(C)C1 [Compound 4, 3-(3-Butoxy-1,2,5-thiadiazol-4-yl)-1,2,5,6-tetrahydro-1-methylpyridine oxalate]",pIC50,muscarinic receptors,8.70
O=C1CCCN1CC#CCN1CCCC1 [Oxotremorine],reversal of the inhibition of vesico-anal reflex activity by atropine,vesico-anal reflex; atropine 0.3-1 mg/kg,reversed by atropine
same,vesico-anal reflex activity (inhibited to % of control),"vesico-anal reflex; oxotremorine 1-30 μg/kg iv, test compounds 0.01-1.0 mg/kg iv",10 % of control
same,inhibition of vesico-anal reflex activity,"vesico-anal reflex; oxotremorine 1-30 μg/kg iv, test compounds 0.01-1.0 mg/kg iv, urethane-anesthetized rats, 0.5% acetic acid",dose-dependent inhibition of vesico-anal reflex activity
C[N+]1(C)[C@@H]2C[C@@H](OC(=O)[C@H](CO)c3ccccc3)C[C@H]1[C@@H]1O[C@@H]12 [Scopolamine methyl bromide],blocking of the cholinergic agonist-mediated inhibition of the vesico-anal reflex,vesico-anal reflex; 1-30 ug/kg,ineffective at blocking the cholinergic agonist-mediated inhibition of the vesico-anal reflex
CN1[C@@H]2CC[C@H]1C[C@@H](OC(=O)C(CO)c1ccccc1)C2 (stereo partly drawn) [atropine],duration of the increase in vesico-anal reflex activity,vesico-anal reflex,15 min
same,increases in vesico-anal reflex activity when administered alone,vesico-anal reflex,"robust, but transient"
"C=CCCCCOc1nsnc1C1=CCCN(C)C1 [Compound 33, 3-(3-(5-Hexenyloxy)-1,2,5-thiadiazol-4-yl)-1,2,5,6-tetrahydro-1-methylpyridine oxalate]",pIC50,muscarinic receptors,8.57
CNC(=O)Oc1ccc2c(c1)[C@]1(C)CCN(C)[C@@H]1N2C [physostigmine],suppression of the VA reflex by cholinesterase inhibitors,"vesico-anal reflex; rat, in vivo","suppressed the VA reflex in a dose-dependent, atropine-sensitive manner"
"CCCSc1nsnc1C1=CCCN(C)C1 [Compound 47, 3-(3-Propylthio-1,2,5-thiadiazol-4-yl)-1,2,5,6-tetrahydro-1-methylpyridine oxalate]",pIC50,muscarinic receptors,9.05
CCN(CC)CC#CCOC(=O)C(O)(c1ccccc1)C1CCCCC1 (stereo not drawn) [oxybutynin],duration of the increase in vesico-anal reflex activity,vesico-anal reflex,15 min
same,increases in vesico-anal reflex activity when administered alone,vesico-anal reflex,"robust, but transient"
"CCOc1nsnc1C1=CCCN(C)C1 [Compound 2, 3-(3-Ethoxy-1,2,5-thiadiazol-4-yl)-1,2,5,6-tetrahydro-1-methylpyridine oxalate]",pIC50,muscarinic receptors,8.24
